Columns and labels:
[1] = system: acute dextran sodium sulfate (DSS)-induced IBD; assay: Acute prophylactic model of DSS-induced IBD in mice; assay type: in vivo, male C57Bl/6 mice
Excerpt: Acute and chronic models of dextran sodium sulfate (DSS)-induced IBD in mice were used to explore efficacy of GSNORi against this disease. Acute and chronic DSS-induced IBD are widely used and well characterized models that induce pathological changes in the colon similar to those observed in the human disease. In these models and in human disease, epithelial cells within the crypts of the colon are disrupted, leading to dysfunction of the epithelial barrier and the ensuing tissue inflammation, edema, and ulceration. GSNORi therapy may benefit IBD by restoring s-nitrosoglutathione (GSNO) levels, and thus prevent or reverse the epithelial barrier dysfunction. Experimental IBD was induced by administration of DSS in the drinking water of male C57Bl/6 mice (N=8 to 10 mice per group) for 6 consecutive days. GSNORi was dosed orally at doses of 0.1 to 10 mg/kg/day for 10 days starting two days prior to and continuing two days post DSS exposure. Two days post DSS exposure, the effect of GSNORi was assessed in a blinded fashion via endoscopy and histopathology using a five point scale ranging from a score=0 (normal tissue) through a score=4 (ulcerative tissue damage and marked pathological changes). Levels of circulating cytokines involved in inflammatory pathways were also assessed. The effect of GSNORi was compared to vehicle treated controls. The corticosteroid, prednisolone, was used as the positive control in this study and was administered daily at 3 mg/kg/day via oral dosing. Naïve mice (N=5) were also assessed as a normal tissue control.

[2] = system: cigarette smoke-induced COPD (subchronic 11 day); assay: Subchronic (11 day) cigarette smoke exposure COPD model; assay type: in vivo, female C57Bl/6 mice
Description: The efficacy of GSNOR inhibitors was assessed in a mouse model of chronic obstructive pulmonary disease (COPD) induced by short duration (4 days or 11 days) of exposure to cigarette smoke. Infiltration of inflammatory cells into the bronchoalveolar lavage fluid (BALF) and BALF levels of chemokines involved in inflammation and tissue turnover/repair were measured to assess the influences of GSNOR inhibitors on some of the early events associated with the initiation and progression of COPD.
Efficacy of GSNOR inhibitors against COPD was explored using acute (4 day) and subchronic (11 day) models of cigarette smoke-induced COPD in mice. […] In animal models, changes in lung pathology are only evident after extended (several months) duration of exposure to cigarette smoke, thus making chronic models prohibitive as effective screening tools. More recently, models exploring inflammatory responses after short duration (2 weeks or less) of smoke exposure in mice have been utilized as tools for screening efficacy and mechanisms of action of novel therapeutics against COPD. The key roles of inflammation in the initiation and progression of COPD, make these short duration models relevant for initial tests of efficacy of novel therapeutics.
Subchronic (11 Day) Smoke Exposure Model: Female C57Bl/6 mice (N=10 per group) were exposed to cigarette smoke generated from Marlboro 100 cigarettes without filters. Exposure times were 25 min. on study day 1, 35 min. on study day 2, and 45 min. on study days 3 to 11. GSNOR inhibitors were administered one hour prior to smoke exposure on each day. GSNOR inhibitors were dosed orally at 1 to 10 mg/kg/day for 11 days. The effects of GSNOR inhibitors were assessed by quantitating the number of total cells, and leukocytes differentials in the BALF via light microscopy at 24 h after the last exposure. The effect of GSNOR inhibitors were compared to vehicle treated controls and expressed as percent inhibition of the cigarette smoke induced increases in BALF cell numbers. Roflumilast was used as the positive control for the study and was dosed at 5 mg/kg/day. A group of naïve mice (N=10) was exposed to air and dosed with vehicle as a negative control for the study.

[3] = oral 10 mg/kg/day for 10 consecutive days, prophylactic

**Q.** `O=C(O)c1ccc(-c2ccc3cc(O)ccc3n2)cc1` [Example 3, 4-(6-hydroxyquinolin-2-yl)benzoic acid] was tested. Which circulating inflammatory cytokines ([1]; acute DSS model, oral dosing) did it give?
**A.** restored circulating inflammatory cytokines towards levels observed in untreated naïve mice

**Q.** What about the “effects compared to prednisolone (positive control)” value ([1]; prednisolone 3 mg/kg/day oral) of the same compound?
**A.** comparable to or greater than those observed for prednisolone

**Q.** And the “inhibition of lymphocytes in BALF” value ([2]; oral 5 mg/kg/day)?
**A.** 46%

**Q.** What about the “inhibition of macrophages in BALF” value ([2]; oral 5 mg/kg/day) of the same compound?
**A.** 23%

**Q.** And the “inhibition of neutrophils in BALF” value ([2]; oral 5 mg/kg/day)?
**A.** 29%

**Q.** And the “inhibition of total cells in BALF” value ([2]; oral 5 mg/kg/day)?
**A.** 22%

**Q.** What about the “inhibition of smoke-induced increase in eosinophils in BALF” value ([2]; oral 10 mg/kg/day for 11 days) of the same compound?
**A.** 70%

**Q.** And the “inhibition of smoke-induced increase in lymphocytes in BALF” value ([2]; oral 10 mg/kg/day for 11 days)?
**A.** 49%

**Q.** What about the “inhibition of smoke-induced increase in macrophages in BALF” value ([2]; oral 10 mg/kg/day for 11 days) of the same compound?
**A.** 24%

**Q.** What about the “inhibition of smoke-induced increase in neutrophils in BALF” value ([2]; oral 10 mg/kg/day for 11 days) of the same compound?
**A.** 41%

**Q.** And the “inhibition of smoke-induced increase in total cells in BALF” value ([2]; oral 10 mg/kg/day for 11 days)?
**A.** 25%

**Q.** Which results are given for `O=C(O)c1ccc(-c2ccc3cc(O)ccc3n2)c(Cl)c1` [Example 8, 3-chloro-4-(6-hydroxyquinolin-2-yl)benzoic acid]?
**A.** decrease of percent of mice with severe colon injury scores via endoscopy [1, 3]: 44 % of vehicle control; decrease of percent of mice with severe colon injury scores via histopathology [1, 3]: 26 % of vehicle control; dose response of effect ([2]; 1, 5, or 10 mg/kg/day): no dose response of effect; effects compared to roflumilast (positive control) ([2]; subchronic 11 day model, roflumilast 5 mg/kg/day): comparable to those of roflumilast
